Assay results published in patent US12042493B2, “Pharmaceutical compounds for use in treating Huntington's disease” (ADEPTIO PHARMACEUTICALS LIMITED, priority 2018, dated 2024).
“Also recorded” adds a separate entry of the source.

What was measured:
[1] = tested on: R6/2 mouse model of Huntington's disease; experiment: Survival rates in R6/2 mouse model of Huntington's disease; assay type: in vivo; settings: for Number of mice alive at the end of the study / Survival Rate (%): male R6/2 mice
Method: The objective of this study was to investigate the efficacy of (+)-α-dihydrotetrabenazine in the R6/2 mouse model of Huntington's disease. The mice were treated with (+)-α-dihydrotetrabenazine ((+)-α-DHTBZ), tetrabenazine (TBZ) or vehicle starting at 4 weeks of age and continuing until 13 weeks of age.
In total, 38 male R6/2 mice and 9 wild type (WT) littermates were used in the study. Mice were dosed from 4 weeks of age until 13 weeks of age. During the course of the study, the body weight of the animals was measured twice-α-week for the whole study duration. At the end of the study, the mice were sacrificed and only tail samples were collected.
All animal experiments were performed as specified in the license authorized by the national Animal Experiment Board of Finland and according to the National Institutes of Health (Bethesda, MD, USA) guidelines for the care and use of laboratory animals. In total, 38 male R6/2 mice and 9 wild type (WT) littermates were used in the study. Only mice with normal plasma bile acid levels were used for the study.
Animals were grouped as follows: • Group 1: 9 male wild-type (WT) mice treated with vehicle (p.o.) from 4-13 weeks of age • Group 2: 9 male R6/2 mice treated with vehicle (p.o.) from 4-13 weeks of age • Group 3: 10 male R6/2 mice treated with (+)-α-DHTBZ (1.5 mg/kg, p.o.) from 4-13 weeks of age • Group 4: 10 male R6/2 mice treated with (+)-α-DHTBZ (3 mg/kg, p.o.) from 4-13 weeks of age • Group 5: 9 male R6/2 mice treated with tetrabenazine (1.5 mg/kg, p.o.) from 4-13 weeks of age
(+)-α-DHTBZ, TBZ and vehicle were administered each day (10 ml/kg, p.o., QD) at approximately the same time of the day for all the mice, starting at 9 a.m.-11 a.m., when the daily dosing was performed at least 1 hour before the tests.
The mice were monitored until end point or the fulfilment of the euthanasia criteria.
A one-tailed, N-1 Two Proportion Test was used to determine statistically significant differences in the survival rates between the treatment groups.

[2] = tested on: R6/2 mouse model of Huntington's disease; experiment: Tremor evaluation in the Tremor Monitor chamber, R6/2 mice; assay type: in vivo; settings: 3.0 mg/kg p.o., pairwise t-test vs R6/2 Vehicle group, FIG. 3
Method: The objective of this study was to investigate the efficacy of (+)-α-dihydrotetrabenazine in the R6/2 mouse model of Huntington's disease. The mice were treated with (+)-α-dihydrotetrabenazine ((+)-α-DHTBZ), tetrabenazine (TBZ) or vehicle starting at 4 weeks of age and continuing until 13 weeks of age. […] The extent of tremor of the mice was evaluated at 7 and 13 weeks of age. […] The mice were placed inside a Tremor Monitor (San Diego Instruments, SDI) chamber for a 10 minute acclimatisation period, following which the tremor activity of the mice was measured for approximately 8 minutes. The recorded frequencies (1-64 hertz) of activity and the number of tremor events were captured electronically. Data were analysed by the Tremor Monitor software (San Diego Instruments) in a two part process. Using a Fast Fourier Transform (FFT), an output was provided showing the percentage of activity (energy) recorded at each frequency. […]

[3] = 1.5 mg/kg p.o. QD from 4-13 weeks of age
[4] = 3.0 mg/kg p.o. QD from 4-13 weeks of age

Row | SMILES | Number of mice alive at the end of the study [1, 3] | Survival Rate (%) [1, 3] [%] | Tremor Power Spectral Density at 12 Hz [2] | Survival rate / lifespan of R6/2 mice versus vehicle or tetrabenazine (in words) ([1]; R6/2 mice, at both 1.5 mg/kg and 3.0 mg/kg, listed as (+)-α-dihydrotetrabenazine) | Number of mice alive at the end of the study [1, 4] | Survival Rate (%) [1, 4] [%]
1 | COc1cc2c(cc1OC)C1CC(=O)C(CC(C)C)CN1CC2 (racemic) [TBZ, 1,3,4,6,7,11b-hexahydro-9,10-dimethoxy-3-(2-methylpropyl)-2H-benzo(a)quinolizin-2-one, reference compound] | 7 | 77.8 | – | – | – | –
2 | COc1cc2c(cc1OC)[C@H]1C[C@@H](O)[C@H](CC(C)C)CN1CC2 [(+)-α-DHTBZ, (2R, 3R, 11bR)-3-isobutul-9,10-dimethox-1,3,4,6,7,11b-hexahydro-2H-pyrido[2,1,a]isoquinolin-2-ol] | 10 | 100 | significantly different compared to the R6/2 Vehicle group | significantly longer than the survival rates of the R6/2 mice treated with vehicle or tetrabenazine; also recorded: prolonged lifespan compared to untreated control R6/2 mice and R6/2 mice that had been treated with tetrabenazine | 10 | 100
